Results taken from the NIST ThermoML archive (doi:10.1021/je200808q).

Test: mn = molality of the nth substance listed, in mol/kg
Conditions: Liquid, Taylor dispersion method

[Cl-].[K+] [potassium chloride] + O
binary diffusion coefficient (298.15 K, 160 kPa, m1 = 0): 1.94e-09 m2/s | binary diffusion coefficient (298.15 K, 240 kPa, m1 = 1): 1.89e-09 m2/s | binary diffusion coefficient (298.15 K, 290 kPa, m1 = 2.5): 2.02e-09 m2/s | binary diffusion coefficient (298.15 K, 480 kPa, m1 = 4.5): 2.17e-09 m2/s | binary diffusion coefficient (298.15 K, 2290 kPa, m1 = 2.5): 2.02e-09 m2/s | binary diffusion coefficient (298.15 K, 4500 kPa, m1 = 2.5): 2.04e-09 m2/s | binary diffusion coefficient (298.15 K, 10170 kPa, m1 = 1): 1.91e-09 m2/s | binary diffusion coefficient (298.15 K, 14990 kPa, m1 = 0): 1.94e-09 m2/s | binary diffusion coefficient (298.15 K, 24920 kPa, m1 = 2.5): 2.04e-09 m2/s | binary diffusion coefficient (298.15 K, 27060 kPa, m1 = 4.5): 2.14e-09 m2/s | binary diffusion coefficient (298.15 K, 28210 kPa, m1 = 1): 1.92e-09 m2/s | binary diffusion coefficient (298.15 K, 30920 kPa, m1 = 0): 1.95e-09 m2/s | binary diffusion coefficient (298.15 K, 32600 kPa, m1 = 2.5): 2.05e-09 m2/s | binary diffusion coefficient (298.15 K, 37390 kPa, m1 = 2.5): 2.04e-09 m2/s | binary diffusion coefficient (298.15 K, 38630 kPa, m1 = 1): 1.92e-09 m2/s | binary diffusion coefficient (298.15 K, 43800 kPa, m1 = 4.5): 2.17e-09 m2/s | binary diffusion coefficient (298.15 K, 45590 kPa, m1 = 1): 1.95e-09 m2/s | binary diffusion coefficient (298.15 K, 47430 kPa, m1 = 2.5): 2.04e-09 m2/s | binary diffusion coefficient (298.15 K, 48170 kPa, m1 = 0): 1.95e-09 m2/s | binary diffusion coefficient (298.15 K, 59030 kPa, m1 = 1): 1.96e-09 m2/s | binary diffusion coefficient (298.15 K, 62940 kPa, m1 = 0): 1.97e-09 m2/s | binary diffusion coefficient (298.15 K, 64970 kPa, m1 = 2.5): 2.07e-09 m2/s | binary diffusion coefficient (298.15 K, 66020 kPa, m1 = 4.5): 2.18e-09 m2/s | binary diffusion coefficient (298.15 K, 66170 kPa, m1 = 2.5): 2.08e-09 m2/s | binary diffusion coefficient (298.15 K, 67070 kPa, m1 = 1): 1.98e-09 m2/s | binary diffusion coefficient (298.15 K, 67630 kPa, m1 = 2.5): 2.08e-09 m2/s | binary diffusion coefficient (323.15 K, 500 kPa, m1 = 4.5): 3.34e-09 m2/s | binary diffusion coefficient (323.15 K, 580 kPa, m1 = 2.5): 3.15e-09 m2/s | binary diffusion coefficient (323.15 K, 610 kPa, m1 = 1): 3.03e-09 m2/s | binary diffusion coefficient (323.15 K, 640 kPa, m1 = 0): 3.02e-09 m2/s | binary diffusion coefficient (323.15 K, 3950 kPa, m1 = 4.5): 3.32e-09 m2/s | binary diffusion coefficient (323.15 K, 15300 kPa, m1 = 1): 3.06e-09 m2/s | binary diffusion coefficient (323.15 K, 15460 kPa, m1 = 0): 3.02e-09 m2/s | binary diffusion coefficient (323.15 K, 31370 kPa, m1 = 4.5): 3.35e-09 m2/s | binary diffusion coefficient (323.15 K, 33580 kPa, m1 = 0): 3.08e-09 m2/s | binary diffusion coefficient (323.15 K, 40890 kPa, m1 = 2.5): 3.12e-09 m2/s | binary diffusion coefficient (323.15 K, 43400 kPa, m1 = 1): 3.08e-09 m2/s | binary diffusion coefficient (323.15 K, 45210 kPa, m1 = 2.5): 3.18e-09 m2/s | binary diffusion coefficient (323.15 K, 47480 kPa, m1 = 2.5): 3.17e-09 m2/s | binary diffusion coefficient (323.15 K, 49570 kPa, m1 = 4.5): 3.29e-09 m2/s | binary diffusion coefficient (323.15 K, 52060 kPa, m1 = 1): 3.1e-09 m2/s | binary diffusion coefficient (323.15 K, 60490 kPa, m1 = 2.5): 3.12e-09 m2/s | binary diffusion coefficient (323.15 K, 62690 kPa, m1 = 4.5): 3.35e-09 m2/s | binary diffusion coefficient (323.15 K, 64860 kPa, m1 = 2.5): 3.15e-09 m2/s | binary diffusion coefficient (323.15 K, 68560 kPa, m1 = 0): 3.09e-09 m2/s | binary diffusion coefficient (323.15 K, 68970 kPa, m1 = 1): 3.1e-09 m2/s | binary diffusion coefficient (348.15 K, 650 kPa, m1 = 0): 4.48e-09 m2/s | binary diffusion coefficient (348.15 K, 660 kPa, m1 = 1): 4.23e-09 m2/s | binary diffusion coefficient (348.15 K, 700 kPa, m1 = 2.5): 4.52e-09 m2/s | binary diffusion coefficient (348.15 K, 730 kPa, m1 = 4.5): 4.65e-09 m2/s | binary diffusion coefficient (348.15 K, 12830 kPa, m1 = 4.5): 4.59e-09 m2/s | binary diffusion coefficient (348.15 K, 15720 kPa, m1 = 0): 4.49e-09 m2/s | binary diffusion coefficient (348.15 K, 18050 kPa, m1 = 2.5): 4.55e-09 m2/s | binary diffusion coefficient (348.15 K, 25820 kPa, m1 = 1): 4.25e-09 m2/s | binary diffusion coefficient (348.15 K, 29270 kPa, m1 = 0): 4.44e-09 m2/s | binary diffusion coefficient (348.15 K, 29960 kPa, m1 = 2.5): 4.57e-09 m2/s | binary diffusion coefficient (348.15 K, 31120 kPa, m1 = 1): 4.26e-09 m2/s | binary diffusion coefficient (348.15 K, 32970 kPa, m1 = 4.5): 4.62e-09 m2/s | binary diffusion coefficient (348.15 K, 35870 kPa, m1 = 1): 4.24e-09 m2/s | binary diffusion coefficient (348.15 K, 39760 kPa, m1 = 1): 4.23e-09 m2/s | binary diffusion coefficient (348.15 K, 41210 kPa, m1 = 1): 4.25e-09 m2/s | binary diffusion coefficient (348.15 K, 41980 kPa, m1 = 1): 4.25e-09 m2/s | binary diffusion coefficient (348.15 K, 45150 kPa, m1 = 2.5): 4.58e-09 m2/s | binary diffusion coefficient (348.15 K, 45330 kPa, m1 = 1): 4.26e-09 m2/s | binary diffusion coefficient (348.15 K, 46780 kPa, m1 = 0): 4.49e-09 m2/s | binary diffusion coefficient (348.15 K, 62420 kPa, m1 = 1): 4.24e-09 m2/s | binary diffusion coefficient (348.15 K, 64020 kPa, m1 = 1): 4.25e-09 m2/s | binary diffusion coefficient (348.15 K, 65910 kPa, m1 = 4.5): 4.63e-09 m2/s | binary diffusion coefficient (348.15 K, 66700 kPa, m1 = 0): 4.52e-09 m2/s | binary diffusion coefficient (348.15 K, 67090 kPa, m1 = 1): 4.25e-09 m2/s | binary diffusion coefficient (348.15 K, 68900 kPa, m1 = 2.5): 4.59e-09 m2/s | binary diffusion coefficient (373.15 K, 740 kPa, m1 = 4.5): 6.25e-09 m2/s | binary diffusion coefficient (373.15 K, 820 kPa, m1 = 0): 6.11e-09 m2/s | binary diffusion coefficient (373.15 K, 820 kPa, m1 = 1): 5.94e-09 m2/s | binary diffusion coefficient (373.15 K, 940 kPa, m1 = 2.5): 5.92e-09 m2/s | binary diffusion coefficient (373.15 K, 17140 kPa, m1 = 2.5): 5.92e-09 m2/s | binary diffusion coefficient (373.15 K, 17780 kPa, m1 = 4.5): 6.22e-09 m2/s | binary diffusion coefficient (373.15 K, 23410 kPa, m1 = 1): 5.93e-09 m2/s | binary diffusion coefficient (373.15 K, 24180 kPa, m1 = 0): 6.14e-09 m2/s | binary diffusion coefficient (373.15 K, 24360 kPa, m1 = 2.5): 5.94e-09 m2/s | binary diffusion coefficient (373.15 K, 31320 kPa, m1 = 2.5): 5.89e-09 m2/s | binary diffusion coefficient (373.15 K, 41280 kPa, m1 = 4.5): 6.24e-09 m2/s | binary diffusion coefficient (373.15 K, 42090 kPa, m1 = 1): 5.94e-09 m2/s | binary diffusion coefficient (373.15 K, 43130 kPa, m1 = 0): 6.11e-09 m2/s | binary diffusion coefficient (373.15 K, 47550 kPa, m1 = 2.5): 5.98e-09 m2/s | binary diffusion coefficient (373.15 K, 47900 kPa, m1 = 4.5): 6.21e-09 m2/s | binary diffusion coefficient (373.15 K, 54290 kPa, m1 = 4.5): 6.24e-09 m2/s | binary diffusion coefficient (373.15 K, 54410 kPa, m1 = 4.5): 6.24e-09 m2/s | binary diffusion coefficient (373.15 K, 57260 kPa, m1 = 2.5): 5.86e-09 m2/s | binary diffusion coefficient (373.15 K, 59590 kPa, m1 = 2.5): 5.96e-09 m2/s | binary diffusion coefficient (373.15 K, 63050 kPa, m1 = 2.5): 5.96e-09 m2/s | binary diffusion coefficient (373.15 K, 64210 kPa, m1 = 1): 5.97e-09 m2/s | binary diffusion coefficient (373.15 K, 64280 kPa, m1 = 0): 6.18e-09 m2/s | binary diffusion coefficient (373.15 K, 65700 kPa, m1 = 4.5): 6.27e-09 m2/s | binary diffusion coefficient (423.15 K, 3080 kPa, m1 = 0): 1.03e-08 m2/s | binary diffusion coefficient (423.15 K, 3410 kPa, m1 = 1): 9.43e-09 m2/s | binary diffusion coefficient (423.15 K, 4440 kPa, m1 = 2.5): 9.69e-09 m2/s | binary diffusion coefficient (423.15 K, 13020 kPa, m1 = 4.5): 9.27e-09 m2/s | binary diffusion coefficient (423.15 K, 15130 kPa, m1 = 1): 9.45e-09 m2/s | binary diffusion coefficient (423.15 K, 15180 kPa, m1 = 2.5): 9.67e-09 m2/s | binary diffusion coefficient (423.15 K, 15260 kPa, m1 = 2.5): 9.68e-09 m2/s | binary diffusion coefficient (423.15 K, 18510 kPa, m1 = 0): 1.03e-08 m2/s | binary diffusion coefficient (423.15 K, 33580 kPa, m1 = 0): 1.03e-08 m2/s | binary diffusion coefficient (423.15 K, 34630 kPa, m1 = 2.5): 9.7e-09 m2/s | binary diffusion coefficient (423.15 K, 34720 kPa, m1 = 1): 9.45e-09 m2/s | binary diffusion coefficient (423.15 K, 40540 kPa, m1 = 4.5): 9.29e-09 m2/s | binary diffusion coefficient (423.15 K, 56030 kPa, m1 = 2.5): 9.7e-09 m2/s | binary diffusion coefficient (423.15 K, 61620 kPa, m1 = 1): 9.48e-09 m2/s | binary diffusion coefficient (423.15 K, 63300 kPa, m1 = 0): 1.03e-08 m2/s | binary diffusion coefficient (423.15 K, 65050 kPa, m1 = 2.5): 9.72e-09 m2/s | binary diffusion coefficient (423.15 K, 65640 kPa, m1 = 1): 9.49e-09 m2/s | binary diffusion coefficient (423.15 K, 68930 kPa, m1 = 4.5): 9.3e-09 m2/s
